# How the values were obtained:
# [1] = tested on: subjects with hypertriglyceridemia and metabolic syndrome; assay: Phase III placebo-controlled study of 130 mg fenofibrate, with and without food: prevalence of metabolic syndrome; settings: for prevalence of metabolic syndrome at end of treatment: 130 mg daily
# Description: Objectives: A primary outcome variable was the difference in the prevalence of metabolic syndrome between the group treated with 130 mg of fenofibrate (“the treatment group”) versus the placebo group (“the placebo”). A related outcome variable included the effect of food on fenofibrate efficacy.
# Methodology: This was a multicenter, prospective, double-blind, double-dummy, randomized, placebo-controlled, parallel group study of a micronized formulation of fenofibrate at a single daily dose of 130 mg. Subjects took prescription or over-the-counter lipid lowering medications or dietary supplements known to alter lipid levels or other aspects of the lipid profile until week 6 (visit 1). At week 6, subjects were instructed to follow the therapeutic lifestyle changes diet, in accordance with the Food and Drug Administration guidelines for clinical evaluations of lipid-altering agents.
# Also at week 6, qualifying subjects were stratified by triglyceride level and randomized in a double-blind fashion to one of three groups, the first two of which constituted the treatment group and the third group constituted the placebo: A) 1 fenofibrate capsule (130 mg) with food and 1 placebo capsule without food; B) 1 fenofibrate capsule (130 mg) without food (three hours after a meal) and 1 placebo capsule with food; and C) placebo, 1 placebo capsule with food and 1 placebo capsule without food. […] One capsule was taken with the subjects' evening meal and a second capsule was taken three hours post-meal. The first dosing occurred on the first evening after visit 4. A lipid profile was measured at every visit, and other measurements were taken regularly throughout the study.
# Treatment duration was eight weeks.
# [2] = cited from earlier work
# high-risk patients = settings: particularly those with diabetes and insulin resistance; cited from earlier work
smiles,measurement,setting,value
"CC(C)OC(=O)C(C)(C)Oc1ccc(C(=O)c2ccc(Cl)cc2)cc1 [fenofibrate, 2-[4-(4-chlorobenzoyl)phenoxy]-2-methyl-propanoic acid, 1-methylethyl ester]",safety and efficacy conclusion,"[1]; fenofibrate formulation 130 mg, eight weeks",safe and efficacious
same,food effect,"[1]; fenofibrate formulation 130 mg, with food versus without food",does not exhibit a food effect
same,prevalence of metabolic syndrome at end of treatment,"[1]; fenofibrate with food group, eight weeks, reduced from 96.3% prevalence",74.1%
same,prevalence of metabolic syndrome at end of treatment,"[1]; fenofibrate without food group (three hours after a meal), eight weeks, reduced from 97.6% prevalence",66.7%
same,decrease in number of subjects having three or more metabolic syndrome criteria,"[1]; treatment group (fenofibrate 130 mg once daily, with or without food), eight-week treatment, placebo 12%, chi-square p-value=0.0416",more than 25%
same,prevalence of metabolic syndrome at end of treatment,"[1]; whole treatment group, eight weeks, reduced from 96.9% prevalence, placebo 98.0% to 86.0%",70.8%
CC(C)(Oc1ccc(C(=O)c2ccc(Cl)cc2)cc1)C(=O)O [fenofibric acid],mean concentration in the plasma,[2]; dose of 300 mg per day,~15000 ng/mL
same,time of maximum concentration in the plasma after ingestion of the medicinal product,[2]; on average,five
same,half-life for elimination from the plasma,[2]; plasma,~20 h
Cc1ccc(C)c(OCCCC(C)(C)C(=O)O)c1 [gemfibrozil],risk for major cardiovascular events,high-risk patients,reduced the risk for major cardiovascular events
